Test results: patent publication US20230053540A1, “TREATMENT OF LIVER INJURY” (Massachusetts Institute of Technology, priority 2019, published 2023)

Test system: hepatocytes
Assay: Seq-Well scRNA-Seq of hepatocytes after APAP overdose (signature scores, DEG vs untreated)
Type: in vivo, mouse
Conditions: A6 vs UT

SMILES: CC(=O)Nc1ccc(O)cc1 [APAP, acetaminophen]
- Ddc avg_logFC: −0.3608
- Ddc pct.1: 0.241
- Ddt avg_logFC: −0.5222
- Ddx3x avg_logFC: 0.6569
- Ddx3y A6logFC: 0.3395
- Ddx5 avg_logFC: 0.5229
- Ddx6 avg_logFC: 0.4443
- Ddx6 pct.1: 0.527
- Ddx21 avg_logFC: 0.7314
- Ddx27 A6logFC: 0.2522
- Ddx27 avg_logFC: 0.2522
- Ddx27 pct.1: 0.286
- Deb1 A6logFC: −0.267
- Deb1 avg_logFC: −0.267
- Deb1 pct.1: 0.274
- Dera A6logFC: −0.2674
- Dera avg_logFC: −0.2674
- Dera pct.1: 0.32
- Derl2 A6logFC: −0.3317
- Dgkd avg_logFC: 0.3708
- Dgkd pct.1: 0.282
- Dhrs3 avg_logFC: −0.4676
- Dhrs3 pct.1: 0.198
- Dhrs4 A6logFC: −0.3321
- Diap1 A6logFC: 0.3259
- Diap1 avg_logFC: 0.3259
- Diap1 pct.1: 0.382
- Dio1 avg_logFC: −0.5453
- Dio1 pct.1: 0.253
- Dkc1 avg_logFC: 0.3258
- Dkc1 pct.1: 0.315
- Dnaja2 A6logFC: 0.3723
- Dnajc5 A6logFC: 0.3265
- Dnajc19 A6logFC: −0.316
- Dot1l avg_logFC: 0.397
- Dot1l pct.1: 0.282
- Dsp A6logFC: 0.2655
- Dsp avg_logFC: 0.2655
- Dsp pct.1: 0.32
- Dst avg_logFC: 0.511
- Dst pct.1: 0.43
- Dusp5 avg_logFC: 0.2964
- Dusp6 avg_logFC: 0.5916
- Dusp16 avg_logFC: 0.4605
- Dusp16 pct.1: 0.372
- Dync1h1 A6logFC: 0.3796
- Eaf1 avg_logFC: 0.5218
- Eaf1 pct.1: 0.427
- Ebpl avg_logFC: −0.4503
- Ebpl pct.1: 0.196
- Eea1 A6logFC: 0.2612
- Eea1 avg_logFC: 0.2612
- Eea1 pct.1: 0.363
- Efhd2 avg_logFC: 0.5838
- Egr1 avg_logFC: 0.5846
- Egr1 pct.1: 0.589
- Eif1a avg_logFC: 0.7953
- Eif3a avg_logFC: 0.3147
- Eif3a pct.1: 0.542
- Eif4a1 A6logFC: 0.2519
- Eif4a1 avg_logFC: 0.2519
- Eif4a1 pct.1: 0.418
- Eif4b A6logFC: 0.3682
- Eif4ebp1 A6logFC: 0.2617
- Eif4ebp1 avg_logFC: 0.2617
- Eif4ebp1 pct.1: 0.387
- Eif4g1 avg_logFC: 0.3749
- Eif4g1 pct.1: 0.723
- Eif4g2 avg_logFC: 0.5597
- Eifia A6logFC: 0.3147
- Eifib A6logFC: 0.2503
- Eific A6logFC: 0.302
- Ell2 avg_logFC: 0.4172
- Ell2 pct.1: 0.535
- Elovl3 avg_logFC: −0.5067
- Elovl3 pct.1: 0.568
- Elovl5 A6logFC: 0.3352
- Elovl5 avg_logFC: 0.3352
- Elovl5 pct.1: 0.63
- Epas1 avg_logFC: 0.7758
- Epb4.1 avg_logFC: 0.5628
- Epb4.1 pct.1: 0.537
- Erf3b avg_logFC: 0.2503
- Erf3b pct.1: 0.449
- Errfi1 avg_logFC: 0.3937
- Errfi1 pct.1: 0.943
- Etnppl avg_logFC: 0.4182
- Etnppl pct.1: 0.706
- Ets2 avg_logFC: 0.6956
- Fabp1 avg_logFC: −1.016
- Fabp2 avg_logFC: −0.6156
- Fam25c A6logFC: −0.2977
- Fam107b avg_logFC: 0.4633
- Fam107b pct.1: 0.449
- Fam134b avg_logFC: 0.8936
- Fam195a A6logFC: −0.2649
- Fam214a A6logFC: −0.2658
- Fbxo21 A6logFC: −0.2631
- Fcgr3 avg_logFC: 0.3082
- Fcgr3 pct.1: 0.107
- Fdps A6logFC: −0.2663
- Fdx1 avg_logFC: −0.6234
- Fga avg_logFC: 0.6934
- Fgb avg_logFC: 0.6469
- Fgg avg_logFC: 0.6153
- Fitm1 avg_logFC: −0.3242
- Fitm1 pct.1: 0.012
- Fkbp5 avg_logFC: 0.5161
- Fndc3b avg_logFC: 0.4096
- Fndc3b pct.1: 0.315
- Fpgs avg_logFC: −0.3494
- Fpgs pct.1: 0.146
- Ftsj3 A6logFC: 0.2552
- Ftsj3 avg_logFC: 0.2552
- Ftsj3 pct.1: 0.346
- Furin avg_logFC: 0.2536
- Furin pct.1: 0.477
- Fus A6logFC: 0.3393
- Fxyd1 avg_logFC: −0.4799
- Fxyd1 pct.1: 0.432
- Fxyd5 avg_logFC: 0.2743
- G6pc avg_logFC: −0.9601
- Gabarap avg_logFC: −0.4425
- Gabarap pct.1: 0.518
- Gadd45a A6logFC: 0.2829
- Gadd45a avg_logFC: 0.2829
- Gadd45a pct.1: 0.251
- Gadd45gip1 A6logFC: −0.3041
- Gamt avg_logFC: −0.5603
- Gars A6logFC: 0.2576
- Gars avg_logFC: 0.2576
- Gars pct.1: 0.334
- Gcat A6logFC: −0.2587
- Gcat avg_logFC: −0.2587
- Gcat pct.1: 0.315
- Gcgr A6logFC: −0.2576
- Gcgr avg_logFC: −0.2576
- Gcgr pct.1: 0.446
- Gch1 avg_logFC: −0.2691
- Gch1 pct.1: 0.461
- Gclc avg_logFC: 1.903
- Gclm avg_logFC: 0.2699
- Gclm pct.1: 0.695
- Gcnt2 avg_logFC: 0.5375
- Gda A6logFC: 0.2663
- Gda avg_logFC: 0.2663
- Gda pct.1: 0.243
- Gfra1 avg_logFC: 0.3864
- Gfra1 pct.1: 0.599
- Gjb2 avg_logFC: 0.6082
- Gldc A6logFC: 0.2802
- Gldc avg_logFC: 0.2802
- Gldc pct.1: 0.465
- Glo1 avg_logFC: −0.4066
- Glo1 pct.1: 0.513
- Glyat avg_logFC: −0.6477
- Glyctk A6logFC: 0.2977
- Gm4952 avg_logFC: −0.4987
- Gm4952 pct.1: 0.198
- Gm5424 A6logFC: 0.2698
- Gm5424 avg_logFC: 0.2698
- Gm5424 pct.1: 0.411
- Gm13775 avg_logFC: −1.066
- Gm15564 avg_logFC: 1.443
- Gm20594 A6logFC: 0.2957
- Gm23388 avg_logFC: 0.4162
- Gm23388 pct.1: 0.222
- Gm23935 avg_logFC: 0.4242
- Gm23935 pct.1: 0.878
- Gm24187 avg_logFC: 0.4319
- Gm24187 pct.1: 0.2
- Gm24601 avg_logFC: 0.4684
- Gm26917 avg_logFC: 0.6012
- Gm26917 pct.1: 0.382
- Gm26924 avg_logFC: 1.161
- Gn13 avg_logFC: 0.576
- Gnai2 A6logFC: 0.2817
- Gnai2 avg_logFC: 0.2817
- Gnai2 pct.1: 0.391
- Gnas A6logFC: 0.2589
- Gnas avg_logFC: 0.2589
- Gnas pct.1: 0.79
- Gne avg_logFC: −0.4251
- Gne pct.1: 0.263
- Gnl2 avg_logFC: 0.3905
- Gnl2 pct.1: 0.384
- Gnmt avg_logFC: −0.3334
- Gnmt pct.1: 0.962
- Golga4 avg_logFC: 0.3521
- Gpt2 avg_logFC: 0.5391
- Gpx1 avg_logFC: −0.7686
- Grn avg_logFC: 0.5408
- Gsk3b avg_logFC: 0.4065
- Gsk3b pct.1: 0.384
- Gsr A6logFC: 0.4128
- Gsta1 avg_logFC: 0.4076
- Gstk1 A6logFC: −0.2828
- Gstk1 avg_logFC: −0.2828
- Gstk1 pct.1: 0.351
- Gstm3 avg_logFC: −0.4111
- Gstm3 pct.1: 0.265
- Gstz1 avg_logFC: −0.4641
